Measured values reported in PMC12292835, “Amylin Receptor 1 Mutagenesis Revealed a Potential Role of Calcitonin Serine 29 in Receptor Interaction” (Biomedicines, 2025).
Where a SMILES comes first, the peptide text is derived from it. The star is where a group is joined. FITC = O=C1OC2(c3ccc(O)cc3Oc3cc(O)ccc32)c2ccc(NC(=S)*)cc21

How the values were obtained:
[1] = biological target: T1, amylin receptor 1 ECD with calcitonin receptor D101E mutation (Homo sapiens, UniProt O60894+P30988, D101E); assay: FP saturation binding, D101E; settings: for Average fluorescence intensity change upon receptor ECD binding: % of a free probe intensity, Mean ± S.D., max receptor 3 μM (sCT), 1 μM (AC413)
T1 construct: pHLsec/hRAMP1.24–111-(GSA)3-hCTR.34–141.D101E-H6 (D-pJJ002); H6 (hexahistidine) (C); made in house; host or cells: HEK293 (transient transfection, secreted, N-glycosylated)
Description: (§1) pHLsec-based vectors were used to express wild-type and mutated amylin receptor 1 extracellular domains as secreted proteins to cell culture media. The plasmid DNA construct of the wild-type amylin receptor 1 extracellular domain, pHLsec/hRAMP1.24–111-(GSA)3-hCTR.34–141-H6 (H-pSL005) was previously described. The following DNA vector plasmids were made for this study: pHLsec/hRAMP1.24–111-(GSA)3-hCTR.34–141.D97A-H6 (D-pSL009), pHLsec/hRAMP1.24–111-(GSA)3-hCTR.34–141.D97E-H6 (D-pJS001), pHLsec/hRAMP1.24–111-(GSA)3-hCTR.34–141.D101A-H6 (D-pJJ003), pHLsec/hRAMP1.24–111-(GSA)3-hCTR.34–141.D101E-H6 (D-pJJ002), pHLsec/hRAMP1.24–111-(GSA)3-hCTR.34–141.E123A-H6 (D-pJJ004), pHLsec/hRAMP1.24–111-(GSA)3-hCTR.34–141.E123D-H6 (D-pJJ001), pHLsec/hRAMP1.24–111-(GSA)3-hCTR.34–141.N124A-H6 (D-pJS005), pHLsec/hRAMP1.24–111-(GSA)3-hCTR.34–141.N124D-H6 (D-pJS006), pHLsec/hRAMP1.24–111-(GSA)3-hCTR.34–141.N135A-H6 (D-pJW001), and pHLsec/hRAMP1.24–111-(GSA)3-hCTR.34–141.N135D-H6 (D-pJS002). The mutations were introduced to the calcitonin receptor extracellular domain by using DNA Assembly reaction. Coding sequences of the receptor expression vectors were confirmed with Sanger sequencing by Bionics (Seoul, Republic of Korea). DNA plasmid vectors were extracted and were purified from bacterial cells with NucleoBond® Extra Midi Plus kit (Macherey-Nagel, Germany). The purified DNA vectors were stored at −20 °C until their use for mammalian cell transfection.
The overall experimental procedure of reconstituting the functional amylin receptor 1 extracellular domain (ECD) as the fusion protein of RAMP1 ECD and the calcitonin receptor ECD was previously described. The wild-type and mutated amylin receptor 1 ECDs were expressed from HEK293 cells with transient transfection with polyethylenimine. […]
(§2) The overall procedure of the FP binding assay with a saturation binding format was previously described. […] FITC-labeled peptide probes were incubated for 1 h at room temperature with the purified receptor protein prior to fluorescence signal measurement. […]

[2] = biological target: T2, amylin receptor 1 ECD with calcitonin receptor N135A mutation (Homo sapiens, UniProt O60894+P30988, N135A); assay: FP saturation binding, N135A; settings: for Average fluorescence intensity change upon receptor ECD binding: % of a free probe intensity, Mean ± S.D., max receptor 3 μM (sCT), 1 μM (AC413); for effect of mutation on binding affinity: in words
T2 construct: pHLsec/hRAMP1.24–111-(GSA)3-hCTR.34–141.N135A-H6 (D-pJW001); H6 (hexahistidine) (C); made in house; host or cells: HEK293 (transient transfection, secreted, N-glycosylated)
Description: as §1
(§3) The overall experimental procedure of reconstituting the functional amylin receptor 1 extracellular domain (ECD) as the fusion protein of RAMP1 ECD and the calcitonin receptor ECD was previously described. The wild-type and mutated amylin receptor 1 ECDs were expressed from HEK293 cells with transient transfection with polyethylenimine. The expressed receptor proteins were secreted to cell culture media for 4 days at 37 °C. The media were collected for the receptor protein purification. Initial dialysis was performed with the dialysis buffer (Tris 25 mM (pH 7.4), NaCl 150 mM, and imidazole 10 mM) overnight. […] Then, a size exclusion column chromatography (SEC) was performed with SEC column (Cytiva, HiLoad® 16/600 Superdex® 200 pg) and SEC buffer (Tris 50 mM (pH 7.4), NaCl 150 mM, and glycerol (v/v) 10%) as previously described. As the final step, the purified receptor proteins were dialyzed to storage buffer (HEPES 25 mM (pH 7.4), NaCl 150 mM, and glycerol (v/v) 50 %) and were stored at −60 °C until their use for the receptor–ligand binding assay. […]
as §2

[3] = biological target: T3, amylin receptor 1 ECD with calcitonin receptor N135D mutation (Homo sapiens, UniProt O60894+P30988, N135D); assay: FP saturation binding, N135D; settings: for Average fluorescence intensity change upon receptor ECD binding: % of a free probe intensity, Mean ± S.D., max receptor 3 μM (sCT), 1 μM (AC413); for effect of mutation on binding affinity: in words
T3 construct: pHLsec/hRAMP1.24–111-(GSA)3-hCTR.34–141.N135D-H6 (D-pJS002); H6 (hexahistidine) (C); made in house; host or cells: HEK293 (transient transfection, secreted, N-glycosylated)
Description: as §1, §3, §2

[4] = biological target: T4, amylin receptor 1 ECD with calcitonin receptor E123A mutation (Homo sapiens, UniProt O60894+P30988, E123A); assay: FP saturation binding, E123A; settings: for Average fluorescence intensity change upon receptor ECD binding: % of a free probe intensity, Mean ± S.D., E123A, max receptor 3 μM (sCT), 1 μM (AC413); for decrease of binding affinity: E123A versus wild-type receptor ECD
T4 construct: pHLsec/hRAMP1.24–111-(GSA)3-hCTR.34–141.E123A-H6 (D-pJJ004); H6 (hexahistidine) (C); made in house; host or cells: HEK293 (transient transfection, secreted, N-glycosylated)
Description: as §1, §3, §2

[5] = biological target: T5, amylin receptor 1 ECD with calcitonin receptor N124D mutation (Homo sapiens, UniProt O60894+P30988, N124D); assay: FP saturation binding, N124D; settings: for Average fluorescence intensity change upon receptor ECD binding: % of a free probe intensity, Mean ± S.D., max receptor 3 μM (sCT), 1 μM (AC413); for effect of mutation on binding affinity: compared with N124A, in words
T5 construct: pHLsec/hRAMP1.24–111-(GSA)3-hCTR.34–141.N124D-H6 (D-pJS006); H6 (hexahistidine) (C); made in house; host or cells: HEK293 (transient transfection, secreted, N-glycosylated)
Description: as §1
The overall experimental procedure of reconstituting the functional amylin receptor 1 extracellular domain (ECD) as the fusion protein of RAMP1 ECD and the calcitonin receptor ECD was previously described. The wild-type and mutated amylin receptor 1 ECDs were expressed from HEK293 cells with transient transfection with polyethylenimine. The expressed receptor proteins were secreted to cell culture media for 4 days at 37 °C. The media were collected for the receptor protein purification. Initial dialysis was performed with the dialysis buffer (Tris 25 mM (pH 7.4), NaCl 150 mM, and imidazole 10 mM) overnight. […] Then, a size exclusion column chromatography (SEC) was performed with SEC column (Cytiva, HiLoad® 16/600 Superdex® 200 pg) and SEC buffer (Tris 50 mM (pH 7.4), NaCl 150 mM, and glycerol (v/v) 10%) as previously described. As the final step, the purified receptor proteins were dialyzed to storage buffer (HEPES 25 mM (pH 7.4), NaCl 150 mM, and glycerol (v/v) 50 %) and were stored at −60 °C until their use for the receptor–ligand binding assay. All purification procedures were performed at 4 °C.
Two peptide probes labeled with fluorescein isothiocyanate (FITC) were used for this study: FITC-labeled salmon calcitonin (sCT) fragment(22–32) and FITC-labeled AC413(6–25) with Y25P mutation. These peptide probes were custom-synthesized from Genscript (Piscataway, NJ, USA). These peptides were used as the probes for the receptor–ligand binding assay. These peptides were HPLC-purified with at least 85% purity by Genscript (Piscataway, NJ, USA). Mass spectrometry performed at Genscript confirmed the correct molecular mass of the synthesized peptides. The extinction coefficient of FITC (63,000 M^−1·cm^−1 at 495 nm, pH 7.0) was used to calculate the concentration of the peptides.
The overall procedure of the FP binding assay with a saturation binding format was previously described. A total of 10 nM FITC-labeled sCT(22–32) and 10 nM FITC-labeled AC413(6–25) with Y25P mutation were used for the receptor–ligand binding assay. For the saturation binding format, the non-linear regression curves were generated by using user-defined equations that were previously described for affinity calculation. FITC-labeled peptide probes were incubated for 1 h at room temperature with the purified receptor protein prior to fluorescence signal measurement. […]

T5 sequence (O60894 24-111): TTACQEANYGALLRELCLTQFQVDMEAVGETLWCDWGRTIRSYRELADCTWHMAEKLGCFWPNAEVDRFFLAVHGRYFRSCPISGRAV
T5 sequence (P30988 34-141 N124D): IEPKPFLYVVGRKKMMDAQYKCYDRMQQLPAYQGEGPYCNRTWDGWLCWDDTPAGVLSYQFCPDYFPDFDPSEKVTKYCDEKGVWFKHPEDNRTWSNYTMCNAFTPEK
T4 sequence (O60894 24-111): as the sequence (O60894 24-111) above
T4 sequence (P30988 34-141 E123A): as the sequence (P30988 34-141 N124D) above, with E90A, D91N counted along it
T1 sequence (O60894 24-111): as the sequence (O60894 24-111) above
T1 sequence (P30988 34-141 D101E): as the sequence (P30988 34-141 N124D) above, with D68E, D91N counted along it
T3 sequence (O60894 24-111): as the sequence (O60894 24-111) above
T3 sequence (P30988 34-141 N135D): as the sequence (P30988 34-141 N124D) above, with D91N, N102D counted along it
T2 sequence (O60894 24-111): as the sequence (O60894 24-111) above
T2 sequence (P30988 34-141 N135A): as the sequence (P30988 34-141 N124D) above, with D91N, N102A counted along it

Average fluorescence intensity change upon receptor ECD binding [1] [%]	Average fluorescence intensity change upon receptor ECD binding [2] [%]	effect of mutation on binding affinity [2]	Average fluorescence intensity change upon receptor ECD binding [3] [%]	effect of mutation on binding affinity [3]	Average fluorescence intensity change upon receptor ECD binding [4] [%]	decrease of binding affinity [4] [fold]	Average fluorescence intensity change upon receptor ECD binding [5] [%]	effect of mutation on binding affinity ([5]; listed as AC413 fragment)	effect of mutation on binding affinity ([1]; in words)	effect of mutation on binding affinity ([5]; listed as salmon calcitonin fragment)	Structure (SMILES)	effect of mutation on binding affinity [5]
99 ± 3	87 ± 15	markedly decreased the binding affinity	85 ± 15	failed to recover the binding affinity	77 ± 13	2.3	88 ± 8	failed to restore the decreased affinity	–	–	CC(C)C[C@H](NC(=O)[C@H](CCCNC(=N)N)NC(=O)[C@@H](NC(=O)[C@H](CC(C)C)NC(=O)[C@H](Cc1ccccc1)NC(=O)[C@H](CC(N)=O)NC(=O)[C@H](C)NC(=S)Nc1ccc2c(c1)C(=O)OC21c2ccc(O)cc2Oc2cc(O)ccc21)C(C)C)C(=O)N[C@@H](CCC(N)=O)C(=O)N[C@H](C(=O)N[C@@H](Cc1ccc(O)cc1)C(=O)N1CCC[C@H]1C(=O)N[C@@H](CCCNC(=N)N)C(=O)N[C@H](C(=O)N[C@@H](CC(N)=O)C(=O)N[C@H](C(=O)NCC(=O)N[C@@H](C)C(=O)N[C@@H](CC(N)=O)C(=O)N[C@H](C(=O)N1CCC[C@H]1C(N)=O)[C@@H](C)O)C(C)C)[C@@H](C)O)[C@@H](C)O [FITC-AC413(6–25) Y25P] ({FITC}-ANFLVRLQTYPRTNVGANTP-NH2; C-terminus assumed)	failed to restore the decreased binding affinity
118 ± 13	81 ± 10	markedly decreased the binding affinity	99 ± 0.1	failed to recover the binding affinity	72 ± 1	4.5	77 ± 5	–	failed to recover the binding affinity	restored the decreased affinity	C[C@@H](O)[C@H](NC(=O)[C@H](CC(N)=O)NC(=O)[C@@H](NC(=O)[C@H](CCCNC(=N)N)NC(=O)[C@@H]1CCCN1C(=O)[C@H](Cc1ccc(O)cc1)NC(=S)Nc1ccc2c(c1)C(=O)OC21c2ccc(O)cc2Oc2cc(O)ccc21)[C@@H](C)O)C(=O)NCC(=O)N[C@@H](CO)C(=O)NCC(=O)N[C@H](C(=O)N1CCC[C@H]1C(N)=O)[C@@H](C)O [FITC-sCT(22–32)] ({FITC}-YPRTNTGSGTP-NH2; C-terminus assumed)	fully restored the decreased binding affinity
